# Data published in patent publication US20250154202A1, “CYCLIC EPITOPE TAGS” (BIONTECH SE, priority 2022, published 2025).
# Where “and” joins values, the source holds several entries; their conditions need not be identical. Identical values can stand only once. Bridge positions count the residues as written; N and C are the ends. Square brackets hold non-standard residues; d marks the D form. Peptide text beside a SMILES is read from it.
# Key:
# [1] = Plasma stability, mouse plasma
# [2] = Plasma stability, human plasma; details: human plasma, 37° C.; for half-life: plasma
# [3] = Balb C, mouse, Li-heparin plasma
# [4] = mouse plasma, 37° C., timepoint 0 h
# [5] = mouse plasma, 37° C., timepoint 1 h
# [6] = mouse plasma, 37° C., timepoint 3 h
# [7] = mouse plasma, 37° C., timepoint 6 h
smiles,measurement,setting,value
"CC(=O)N1CCC[C@H]1C(=O)N[C@@H](CO)C(=O)N[C@@H](CCCNC(=N)N)C(=O)N[C@@H](CC(C)C)C(=O)N[C@@H](CCC(=O)O)C(=O)N[C@H]1CSSC[C@H](C(=O)N[C@@H](CCCNC(=N)N)C(=O)N[C@@H](CCCNC(=N)N)C(=O)N[C@@H](CC(C)C)C(=O)N[C@H](C(=O)N[C@@H](CCC(=O)O)C(N)=O)[C@@H](C)O)NC(=O)[C@H](CC(C)C)NC(=O)[C@H](CCC(=O)O)NC1=O [SD15807, Ac-Pro-Ser-Arg-Leu-Glu-(cyclo6)Cys-Glu-Leu-(cyclo9)dCys-Arg-Arg-Leu-Thr-Glu-NH2] (Ac-PSRLECEL[dC]RRLTE-NH2; disulfide 6-9)","remaining at 1 h, 10 µM",[1]; [3],78.7%
same,"remaining at 3 h, 10 µM",[1]; [3],60.9%
same,"remaining at 6 h, 10 µM",[1]; [3],37%
same,Conc. (% of T0),[1]; [4],100.0 % of T0
same,Mean (compound concentration),[1]; [4],2.172
same,Tube 2 (compound concentration),[1]; [4],2.194
same,Tube 1 (compound concentration),"[1]; mouse plasma, 37° C., timepoint 0 h, calibration range 0.1 to 10 μM",2.149 x
same,Mean (compound concentration),[1]; [5],1.710
same,Tube 1 (compound concentration),[1]; [5],1.726 x
same,Tube 2 (compound concentration),[1]; [5],1.693
same,Mean (compound concentration),[1]; [6],1.322
same,Tube 1 (compound concentration),[1]; [6],1.321 x
same,Tube 2 (compound concentration),[1]; [6],1.323
same,Mean (compound concentration),[1]; [7],0.804
same,Tube 1 (compound concentration),[1]; [7],0.803 x
same,Tube 2 (compound concentration),[1]; [7],0.804
same,half-life,"[1]; mouse, plasma, Half-life time, mouse plasma, 37° C., incubation 24 h (triplicates) or 6 h (duplicates)",4.32 h
same,Conc. (% of T0),[2]; timepoint 0 h,100.0 % of T0
same,Mean (compound concentration),[2]; timepoint 0 h,2.217 and 2.958
same,Tube 2 (compound concentration),[2]; timepoint 0 h,2.230 and 3.034
same,Tube 1 (compound concentration),"[2]; timepoint 0 h, calibration range 0.1 to 10 μM",2.203 x and 2.882 x
same,Mean (compound concentration),[2]; timepoint 1 h,2.093 and 2.872
same,Tube 1 (compound concentration),[2]; timepoint 1 h,2.094 x and 2.884 x
same,Tube 2 (compound concentration),[2]; timepoint 1 h,2.092 and 2.860
same,Conc. (% of T0),"[2]; timepoint 1 h, 60 min",97.1 % of T0
same,Mean (compound concentration),[2]; timepoint 3 h,1.662 and 2.596
same,Tube 1 (compound concentration),[2]; timepoint 3 h,1.583 x and 2.532 x
same,Tube 2 (compound concentration),[2]; timepoint 3 h,1.740 and 2.660
same,Conc. (% of T0),"[2]; timepoint 3 h, 180 min",87.8 % of T0
same,Conc. (% of T0),"[2]; timepoint 6 h, 360 min",51.2 % of T0 and 77.7 % of T0
same,"remaining at 1 h, 10 µM","[2]; human, human Li-heparin plasma, Conc. (% of T0), timepoint 1 h",94.4%
same,"remaining at 3 h, 10 µM","[2]; human, human Li-heparin plasma, Conc. (% of T0), timepoint 3 h",75%
same,half-life,"[2]; human, Flag (half-life, assay exceeded)",> 6 h
same,half-life,"[2]; human, Half-life time, incubation 24 h (triplicates) or 6 h (duplicates)",6.07 h
